The results in this text go back to ChEMBL document CHEMBL1201862, “PubChem BioAssay data set” (2004).

Holding throughout (test): NCI tumour cell line growth inhibition, 48 h
For experiment [1], the system named is DMS-114.
For experiment [2], the system named is XF498.
Experiment [3] has as its system DMS-273.
The test system of experiment [4] is HOP-18.
In experiment [5] the test system is M19-MEL.
The test system of experiment [6] is DLD-1.
Experiment [7] concerns KM-20L2.
Experiment [8] has as its system SNB-78.
Experiment [9] relates to RXF 631.

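Values below derive from 48-hour exposures of cells grown in 96-well plates, with endpoints linearly interpolated between the two concentrations bracketing the appropriate inhibition level. GI50 is the concentration that inhibits growth by half.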 Active and inactive are the calls of the source. Rule as the data show it: active = GI50 up to about 1.1 µM and inactive = higher.

Regarding `CC1(O)CCC2(C#N)CCC1C2O` (centres undefined), the GI50 in experiment [1] was 16.2 µM (inactive); in [2], > 100 µM (inactive); in [3], 94.4 µM (inactive); in [4], > 100 µM (inactive); in experiment [5] it was > 100 µM (inactive); in experiment [6] it was 34 µM (inactive). Moreover, the GI50 is 62.2 µM (inactive) in experiment [7], > 100 µM (inactive) in [8] and > 100 µM (inactive) in [9].
Turning to `COCOc1ccc(Cn2c(=O)n(C)c(=O)c3c2ncn3C)cc1[N+](=O)[O-]`, the GI50 is 44.6 µM (inactive) in [1]; > 100 µM (inactive) in [3]; > 100 µM (inactive) in experiment [5]; > 100 µM (inactive) in [6]; > 100 µM (inactive) in [7]; > 100 µM (inactive) in experiment [8].
As for `N#C/C(=C\c1ccc(C(O)P(=O)(O)O)cc1)C(N)=O` (centres undefined), the GI50 in experiment [1] was 17.2 µM (inactive); in experiment [2], > 100 µM (inactive); in [3], > 100 µM (inactive); in experiment [4], > 100 µM (inactive); in [5], > 100 µM (inactive); in [6], > 100 µM (inactive). The GI50 in experiment [7], in experiment [8] and in experiment [9] was > 100 µM (inactive) throughout.
In the case of `CCCCCNC(=O)c1c(O)[nH]c(=S)[nH]c1=O`, the GI50 is 60.7 µM (inactive) in experiment [1]; > 100 µM (inactive) in experiment [5]; > 100 µM (inactive) in experiment [7]; > 100 µM (inactive) in [8]; > 100 µM (inactive) in experiment [9].
With `O=c1cc(O)ccn1C1C=C(CO)C(O)C1O` (centres undefined), the GI50 was > 625 µM (inactive) in experiment [1]; < 0.0625 µM (active) in experiment [2]; > 625 µM (inactive) in experiment [3]; > 625 µM (inactive) in [4]; > 625 µM (inactive) in experiment [6]; > 625 µM (inactive) in experiment [7]. Besides, in [8], the GI50 was > 625 µM (inactive).
With `Cc1c(/C=N/NC(=O)c2ccccc2O)c(=O)n(-c2ccccc2)n1C`, the GI50 in experiment [1] is > 100 µM (inactive); in [2], > 100 µM (inactive); in experiment [3], 58.5 µM (inactive); in experiment [4], > 100 µM (inactive); in experiment [5], > 100 µM (inactive); in [6], > 100 µM (inactive). For the same compound, the GI50 in [7] and in [8] was > 100 µM (inactive) throughout.
Consider `O=C(CSc1nnc(-c2ccc(/N=C\c3ccc(Cl)cc3)cc2)o1)Nc1ccccc1`, for which the GI50 in experiment [1] was 58.1 µM (inactive); in [2] it was > 100 µM (inactive); in experiment [3] it was 27.3 µM (inactive); in experiment [4], 54.2 µM (inactive); in experiment [5], 36.6 µM (inactive); in [7], > 100 µM (inactive). In [8], the GI50 is 63.1 µM (inactive).
Consider `C[C@H]1COC2(c3ccccc3)CCC(=O)N12` (some centres undefined), for which the GI50 in experiment [1], in experiment [2], in experiment [3], in experiment [4], in experiment [5] and in experiment [6] was > 100 µM (inactive) each time. In addition, the GI50 in experiment [7] and in experiment [8] was > 100 µM (inactive) in each case.
